In brackets after ≈: the same amount, converted by molar mass. Several values for one entry are separate records, joined by “and”; a condition that tells them apart may be missing. Equal values may be shown once.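 Cells were grown in 96-well plates and exposed to each compound for 48 hours at five concentrations; endpoints were interpolated linearly between bracketing concentrations, or set to the highest concentration if not reached. GI50 is the concentration that inhibits growth by half. At the TGI there is no net growth.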 Activity calls are given as the source filed them. No stated cut-off is given here; in the data, active means GI50 below about 0.43 µM; inactive means the rest.
Experiments:
Assay in all cases: NCI-60 cell line screen, 48 h
UO-31 renal = system: UO-31 renal
COLO 205 colon = system: COLO 205 colon
KM12 colon = system: KM12 colon
HOP-18 NSCLC = system: HOP-18 NSCLC
IGROV1 ovarian = system: IGROV1 ovarian
HT29 colon = system: HT29 colon
HS 578T breast = system: HS 578T breast
OVCAR-3 ovarian = system: OVCAR-3 ovarian
EKVX NSCLC = system: EKVX NSCLC

SMILES	GI50 (UO-31 renal) [ng/mL]	TGI (UO-31 renal)	GI50 (COLO 205 colon)	TGI (COLO 205 colon)	TGI (KM12 colon) [µM]	outcome (HOP-18 NSCLC)	GI50 (IGROV1 ovarian)	TGI (IGROV1 ovarian)	GI50 (HT29 colon)	TGI (HT29 colon)	TGI (HS 578T breast)	GI50 (OVCAR-3 ovarian) [ng/mL]	TGI (OVCAR-3 ovarian)	GI50 (EKVX NSCLC) [ng/mL]	TGI (EKVX NSCLC)	TGI (HOP-18 NSCLC)	GI50 (KM12 colon) [µM]	GI50 (HOP-18 NSCLC)	GI50 (HS 578T breast)
COc1cc2c(cc1O)CCN[C@@]21CS[C@H]2c3c(OC(C)=O)c(C)c4c(c3C(COC1=O)N1C2C2NC(Cc3cc(C)c(OC)c(O)c32)[C@@H]1O)OCO4 (some centres not stated)	10.8 (≈ 14.5 nM)	21.3 nM and 0.255 µg/mL	4.5 ng/mL	< 10 nM and 1.9e-07 µg/mL and 0.0045 µg/mL	11.3	inactive	0.000551 ng/mL and 4.5 ng/mL	10.5 µM and 0.000362 µg/mL and 0.0045 µg/mL	4.5 ng/mL	11.1 µM and 5.58 µg/mL	0.302 µM	0.000341 (≈ 0.000455 nM)	0.00531 ng/mL	0.000588 (≈ 0.000786 nM)	< 10 nM and 1.3e-05 µg/mL				
Cc1[nH]c2c(C)c3c([nH]c4ccc(Cl)cc43)c(C)c2c(=O)c1C		38.9 µM		18.8 µM	77.2			> 65.5 µM		12.8 µM	> 100 µM		18.9 µM		> 100 µM	> 100 µM			
O=C1c2ccccc2C(=O)c2c1ccc1c3ccccc3n(-c3ccccc3)c21		55.1 µM		34.2 µM	50.1			41 µM		29.2 µM	42.7 µM		55 µM		56 µM	27.6 µM			
C=C1C(C)C2C(Cc3ccccc3)NC(=O)C23C(OC(C)=O)C=CC(C)(O)C(=O)C(C)C/C=C/C3C1O (configuration not stated)		1.62 µM and 14.3 µM	0.0825 µM	> 500 µM	> 500		0.79 µM		0.0505 µM and 0.176 µM and 0.0663 µM	> 278 µM	2.07 µM and 1.18 µM		> 500 µM		> 95.5 µM and 30 µM	1.09 µM and 0.117 µM	163	0.0404 µM and 0.05 µM	0.0185 µM and 0.0551 µM

Source: PubChem BioAssay (NCI)
